The results in this text go back to the supplement of paper PMC9780213.

What all share (conditions): treatment time: 24 h
One test deals with U2OS-LMNB1-TUBA1B-ACTB. Put plainly: cell count relative to DMSO control (panel C1, DRAQ5/ER stain) (fraction of control); higher = more cells (less toxicity). As for the experimental part:
(§1)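 U2OS-derived cells in 384-well plates were treated for 24 h with a 7-point 2-fold dilution series (top dose 20 µM for most compounds; final max DMSO 1%), then fixed, stained in four marker panels and imaged on a Cellomics ArrayScan. Cell count per treatment (three replicate plates merged) is given as a fraction of DMSO control. Panel A used parental U2OS, panel B U2OS-mOrange2-Peroxisome, panel C1 U2OS-LMNB1-TUBA1B-ACTB (DRAQ5 nuclei).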

For another test, the system named is U2OS. Put plainly: cell count relative to DMSO control (panel A, nuclei/RNA/PMG/mitochondria stain) (fraction of control); higher = more cells (less toxicity). As for the experimental part: as §1
The test system of the next test is U2OS-mOrange2-Peroxisome. The test can be described thus: cell count relative to DMSO control (panel B, lysosome/peroxisome/lipid stain) (fraction of control); higher = more cells (less toxicity). As for the experimental part:
as §1

For the molecule `C=CCNC1=C2C[C@@H](C)C[C@H](OC)[C@H](O)[C@@H](C)/C=C(\C)[C@H](OC(N)=O)[C@@H](OC)/C=C\C=C(/C)C(=O)NC(=CC1=O)C2=O` [tanespimycin], the cell count worked out at 1.06 with U2OS-LMNB1-TUBA1B-ACTB (0.07812 µM); 1.03 in the test with U2OS-LMNB1-TUBA1B-ACTB (0.15625 µM); 1.06 in the test with U2OS-LMNB1-TUBA1B-ACTB (0.3125 µM); 0.956 in the test with U2OS-LMNB1-TUBA1B-ACTB (0.625 µM); 0.938 in the test with U2OS-LMNB1-TUBA1B-ACTB (1.25 µM); 0.501 with U2OS-LMNB1-TUBA1B-ACTB (2.5 µM). Moreover, the cell count was 0.0736 in the test on U2OS-LMNB1-TUBA1B-ACTB (5 µM); 1 in the test on U2OS (0.07812 µM); 0.976 in the test with U2OS (0.15625 µM); 0.929 in the test with U2OS (0.3125 µM); 0.901 in the test on U2OS (0.625 µM); 0.686 with U2OS (1.25 µM). For the same molecule, the cell count was found to be 0.307 in the test on U2OS (2.5 µM); 0.0406 in the test with U2OS (5 µM); 1.48 with U2OS-mOrange2-Peroxisome (0.07812 µM); 0.803 in the test on U2OS-mOrange2-Peroxisome (0.15625 µM); 0.767 with U2OS-mOrange2-Peroxisome (0.3125 µM); 0.7 in the test on U2OS-mOrange2-Peroxisome (0.625 µM). For the same molecule, the cell count was found to be 0.405 in the test on U2OS-mOrange2-Peroxisome (1.25 µM), 0.144 in the test on U2OS-mOrange2-Peroxisome (2.5 µM) and 0.148 with U2OS-mOrange2-Peroxisome (5 µM).

For the molecule `COc1ccc2cc1Oc1ccc(cc1)C[C@H]1c3cc(c(OC)cc3CCN1C)Oc1c(OC)c(OC)cc3c1[C@H](C2)N(C)CC3` [tetrandrine], the cell count in the test on U2OS-LMNB1-TUBA1B-ACTB (0.3125 µM) turned out to be 1.04; with U2OS-LMNB1-TUBA1B-ACTB (0.625 µM) it was 1.06; in the test on U2OS-LMNB1-TUBA1B-ACTB (1.25 µM), 1.06; with U2OS-LMNB1-TUBA1B-ACTB (2.5 µM), 1.05; in the test on U2OS-LMNB1-TUBA1B-ACTB (5 µM), 0.976; in the test on U2OS-LMNB1-TUBA1B-ACTB (10 µM), 0.796. The cell count in the test on U2OS-LMNB1-TUBA1B-ACTB (20 µM) came to 0.639; in the test on U2OS (0.3125 µM) it was 0.949; with U2OS (0.625 µM), 1; in the test on U2OS (1.25 µM), 1.01; in the test on U2OS (2.5 µM) it was 0.97; with U2OS (5 µM), 0.905. The cell count turned out to be 0.781 in the test with U2OS (10 µM); 0.631 in the test with U2OS (20 µM); 0.838 in the test with U2OS-mOrange2-Peroxisome (0.3125 µM); 0.86 with U2OS-mOrange2-Peroxisome (0.625 µM); 0.958 in the test with U2OS-mOrange2-Peroxisome (1.25 µM); 0.976 in the test with U2OS-mOrange2-Peroxisome (2.5 µM). Also, the cell count with U2OS-mOrange2-Peroxisome (5 µM) was found to be 0.895; in the test on U2OS-mOrange2-Peroxisome (10 µM), 0.827; in the test on U2OS-mOrange2-Peroxisome (20 µM), 0.488.

`Cc1c(Cl)cccc1Nc1ccccc1C(=O)O` [tolfenamic-acid]: the cell count with U2OS-LMNB1-TUBA1B-ACTB (0.3125 µM) came out at 1.01; in the test on U2OS-LMNB1-TUBA1B-ACTB (0.625 µM) it was 1.1; in the test with U2OS-LMNB1-TUBA1B-ACTB (1.25 µM), 1.11; in the test with U2OS-LMNB1-TUBA1B-ACTB (2.5 µM), 1.07; in the test on U2OS-LMNB1-TUBA1B-ACTB (5 µM), 0.998; in the test on U2OS-LMNB1-TUBA1B-ACTB (10 µM), 1.12. Moreover, the cell count with U2OS-LMNB1-TUBA1B-ACTB (20 µM) was 1.03; with U2OS (0.3125 µM) it was 0.992; with U2OS (0.625 µM), 1.06; in the test with U2OS (1.25 µM) it was 1.03; in the test with U2OS (2.5 µM), 1.1; in the test on U2OS (5 µM), 1.04. The cell count was 1.03 in the test on U2OS (10 µM); 0.963 with U2OS (20 µM); 0.753 in the test on U2OS-mOrange2-Peroxisome (0.3125 µM); 0.959 in the test with U2OS-mOrange2-Peroxisome (0.625 µM); 0.883 in the test with U2OS-mOrange2-Peroxisome (1.25 µM); 0.953 in the test with U2OS-mOrange2-Peroxisome (2.5 µM). Also, the results for the cell count with U2OS-mOrange2-Peroxisome (5 µM), in the test on U2OS-mOrange2-Peroxisome (10 µM) and in the test on U2OS-mOrange2-Peroxisome (20 µM) were 0.933, 1.01 and 1.22, respectively.

As for `CC(C=CC(=O)NO)=C[C@@H](C)C(=O)c1ccc(N(C)C)cc1` [trichostatin-a], the cell count with U2OS-LMNB1-TUBA1B-ACTB (0.3125 µM) was 1.04; in the test with U2OS-LMNB1-TUBA1B-ACTB (0.625 µM) it was 0.942; in the test with U2OS-LMNB1-TUBA1B-ACTB (1.25 µM), 0.773; in the test with U2OS-LMNB1-TUBA1B-ACTB (2.5 µM), 0.619; in the test with U2OS-LMNB1-TUBA1B-ACTB (5 µM) it was 0.639; in the test on U2OS-LMNB1-TUBA1B-ACTB (10 µM), 0.517. Moreover, the cell count is 0.314 in the test with U2OS-LMNB1-TUBA1B-ACTB (20 µM); 0.888 with U2OS (0.3125 µM); 0.737 in the test on U2OS (0.625 µM); 0.497 in the test on U2OS (1.25 µM); 0.466 with U2OS (2.5 µM); 0.427 in the test on U2OS (5 µM). The cell count with U2OS (10 µM) stood at 0.258; in the test on U2OS (20 µM), 0.142; with U2OS-mOrange2-Peroxisome (0.3125 µM), 0.582; in the test on U2OS-mOrange2-Peroxisome (0.625 µM) it was 0.501; in the test on U2OS-mOrange2-Peroxisome (1.25 µM), 0.516; with U2OS-mOrange2-Peroxisome (2.5 µM), 0.585. Besides, the cell count amounted to 0.605 in the test on U2OS-mOrange2-Peroxisome (5 µM), 0.228 with U2OS-mOrange2-Peroxisome (10 µM) and 0.0857 in the test on U2OS-mOrange2-Peroxisome (20 µM).

As for `CC(=O)N[C@H]1[C@@H](O[C@@H]2O[C@H](CC(O)[C@H]3O[C@@H](n4ccc(=O)[nH]c4=O)[C@H](O)[C@@H]3O)[C@H](O)[C@H](O)[C@H]2NC(=O)/C=C/CC(C)C)O[C@H](CO)[C@@H](N)[C@@H]1O` (some centres not stated) [tunicamycin], the cell count in the test with U2OS-LMNB1-TUBA1B-ACTB (0.07812 µM) stood at 0.934; with U2OS-LMNB1-TUBA1B-ACTB (0.15625 µM), 0.611; in the test with U2OS-LMNB1-TUBA1B-ACTB (0.3125 µM) it was 0.555; in the test on U2OS-LMNB1-TUBA1B-ACTB (0.625 µM), 0.626; in the test with U2OS-LMNB1-TUBA1B-ACTB (1.25 µM), 0.596; in the test on U2OS-LMNB1-TUBA1B-ACTB (2.5 µM), 0.552. Also, the cell count with U2OS-LMNB1-TUBA1B-ACTB (5 µM) stood at 0.491; with U2OS (0.07812 µM), 0.979; with U2OS (0.15625 µM) it was 0.654; with U2OS (0.3125 µM), 0.663; in the test on U2OS (0.625 µM), 0.582; in the test on U2OS (1.25 µM), 0.61. Further, the cell count with U2OS (2.5 µM) was determined as 0.535; with U2OS (5 µM) it was 0.535; in the test with U2OS-mOrange2-Peroxisome (0.07812 µM), 0.498; in the test with U2OS-mOrange2-Peroxisome (0.15625 µM), 0.477; in the test on U2OS-mOrange2-Peroxisome (0.3125 µM), 0.558; in the test with U2OS-mOrange2-Peroxisome (0.625 µM) it was 0.528. In addition, the cell count with U2OS-mOrange2-Peroxisome (1.25 µM) came out at 0.587; in the test with U2OS-mOrange2-Peroxisome (2.5 µM), 0.448; in the test on U2OS-mOrange2-Peroxisome (5 µM) it was 0.517.

`CC[C@]1(O)C[C@H]2CN(CCc3c([nH]c4ccccc34)[C@@](C(=O)OC)(c3cc4c(cc3OC)N(C=O)[C@H]3[C@@](O)(C(=O)OC)[C@H](OC(C)=O)[C@]5(CC)C=CCN6CC[C@]43[C@@H]65)C2)C1` [vincristine]: the cell count is 0.617 in the test on U2OS-LMNB1-TUBA1B-ACTB (0.3125 µM); 0.651 with U2OS-LMNB1-TUBA1B-ACTB (0.625 µM); 0.606 with U2OS-LMNB1-TUBA1B-ACTB (1.25 µM); 0.557 in the test on U2OS-LMNB1-TUBA1B-ACTB (2.5 µM); 0.576 in the test on U2OS-LMNB1-TUBA1B-ACTB (5 µM); 0.58 with U2OS-LMNB1-TUBA1B-ACTB (10 µM). The cell count in the test with U2OS-LMNB1-TUBA1B-ACTB (20 µM) amounted to 0.59; with U2OS (0.3125 µM), 0.508; with U2OS (0.625 µM), 0.506; in the test on U2OS (1.25 µM), 0.522; in the test on U2OS (2.5 µM), 0.496; with U2OS (5 µM), 0.465. Besides, the cell count with U2OS (10 µM) was determined as 0.486; in the test on U2OS (20 µM) it was 0.456; with U2OS-mOrange2-Peroxisome (0.3125 µM) it was 0.728; in the test with U2OS-mOrange2-Peroxisome (0.625 µM), 0.834; with U2OS-mOrange2-Peroxisome (1.25 µM) it was 0.678; in the test on U2OS-mOrange2-Peroxisome (2.5 µM), 0.793. Also, the results for the cell count with U2OS-mOrange2-Peroxisome (5 µM), in the test on U2OS-mOrange2-Peroxisome (10 µM) and in the test on U2OS-mOrange2-Peroxisome (20 µM) were 0.752, 0.769 and 0.685, respectively.

On to `O=C(CCCCCCC(=O)Nc1ccccc1)NO` [vorinostat], for which the cell count in the test with U2OS-LMNB1-TUBA1B-ACTB (0.3125 µM) was 1.1; in the test with U2OS-LMNB1-TUBA1B-ACTB (0.625 µM), 1.02; in the test with U2OS-LMNB1-TUBA1B-ACTB (1.25 µM) it was 0.995; in the test with U2OS-LMNB1-TUBA1B-ACTB (2.5 µM), 0.911; in the test on U2OS-LMNB1-TUBA1B-ACTB (5 µM), 1.01; in the test on U2OS-LMNB1-TUBA1B-ACTB (10 µM), 0.794. Also, the cell count worked out at 0.208 in the test with U2OS-LMNB1-TUBA1B-ACTB (20 µM); 1.12 in the test with U2OS (0.3125 µM); 1.1 in the test with U2OS (0.625 µM); 0.993 with U2OS (1.25 µM); 1.03 with U2OS (2.5 µM); 1.02 in the test on U2OS (5 µM). The cell count in the test with U2OS (10 µM) is 0.899; in the test on U2OS (20 µM), 0.304; in the test with U2OS-mOrange2-Peroxisome (0.3125 µM), 0.929; with U2OS-mOrange2-Peroxisome (0.625 µM), 1.04; with U2OS-mOrange2-Peroxisome (1.25 µM) it was 0.893; in the test with U2OS-mOrange2-Peroxisome (2.5 µM) it was 1.13. Besides, the cell count in the test with U2OS-mOrange2-Peroxisome (5 µM) came out at 0.926; in the test with U2OS-mOrange2-Peroxisome (10 µM), 0.812; with U2OS-mOrange2-Peroxisome (20 µM), 0.292.
